Results: US6025370A, “Quinolonecarboxylic acid derivatives or salts thereof” (Toyama Chemical Co., Ltd., priority 1996, dated 2000)
In brackets after ≈: the same amount, converted by molar mass. Read-outs that look alike come from different tables or passages of the source.

Tests used:
S. aureus F-137 = experiment: Antibacterial activity (MIC), S. aureus F-137 (β-lactamase-producing); assay type: cell-based; conditions: 10^6 cells/plate, 37° C., 20 hours
Method: (§1) According to the standard method of Japan Society of Chemotherapy [CHEMOTHERAPY, vol. 29, No. 1, pages 76-79 (1981)], a loopful of a cell suspension obtained by culturing in Mueller Hinton broth (mfd. by Difco) at 37° C. for 20 hours and adjusted to a concentration of 10^6 cells/plate (10^8 cells/ml) was inoculated into a Mueller Hinton agar medium (mfd. by Difco) containing the test compound, followed by incubation at 37° C. for 20 hours. […] In Table 1, *1 to *4 denote the following strains:
2: β-lactamase-producing S. aureus

E. coli NIHJ JC-2 = experiment: Antibacterial activity (MIC), E. coli NIHJ JC-2; assay type: cell-based, Escherichia coli
Method: (§2) According to the standard method of Japan Society of Chemotherapy [CHEMOTHERAPY, vol. 29, No. 1, pages 76-79 (1981)], a loopful of a cell suspension obtained by culturing in Mueller Hinton broth (mfd. by Difco) at 37° C. for 20 hours and adjusted to a concentration of 10^6 cells/plate (10^8 cells/ml) was inoculated into a Mueller Hinton agar medium (mfd. by Difco) containing the test compound, followed by incubation at 37° C. for 20 hours. […]

S. aureus F-597 = experiment: Antibacterial activity (MIC), S. aureus F-597 (methicillin-resistant); assay type: cell-based; conditions: Mueller Hinton agar, 10^6 cells/plate, 37° C.
Method: as §1
3: methicillin-resistant S. aureus

S. aureus FDA209P = experiment: Antibacterial activity (MIC), S. aureus FDA209P; assay type: cell-based, Staphylococcus aureus
Method: as §2

in vivo = conditions: mouse, intravenous, ddy strain mice, solution in 0.1 N aqueous sodium hydroxide, read-out: median lethal dose (LD50)
Method: Each test compound was intravenously administered to groups of 4 ddy strain mice (body weight: 30±1 g) each, whereby its acute toxicity was investigated. In this case, the compound was administered in the form of a solution prepared by dissolving the compound in a 0.1 N aqueous sodium hydroxide solution.

[1] = Staphylococcus aureus, F137, Mueller Hinton agar, read-out: MIC
[2] = Escherichia coli, NIHJJC2, E. coli NIHJ JC-2, Mueller Hinton agar, 10^6 cells/plate, 37° C., 20 hours, read-out: MIC
[3] = Staphylococcus aureus, F597, 20 h, read-out: MIC
[4] = Staphylococcus aureus, S. aureus FDA209P, Mueller Hinton agar, 10^6 cells/plate, 37° C., 20 hours, read-out: MIC

Row | Compound | MIC (S. aureus F-137; [1]) | MIC (E. coli NIHJ JC-2; [2]) | MIC (S. aureus F-597; [3]) | MIC (S. aureus FDA209P; [4]) | MIC (S. aureus F-597; 20 hours) | LD50 (in vivo) | MIC (E. coli NIHJ JC-2; Escherichia coli, NIHJJC2, 20 h) | MIC (S. aureus FDA209P; Staphylococcus aureus, FDA209P, 20 h) | MIC (S. aureus F-137; Mueller Hinton agar) | MIC (E. coli NIHJ JC-2; E. coli NIHJ JC-2, Mueller Hinton agar, 10^6 cells/plate, 37° C., 20 hours) | MIC (S. aureus FDA209P; S. aureus FDA209P, Mueller Hinton agar, 10^6 cells/plate, 37° C., 20 hours)
1 | CC1NCc2cc(-c3ccc4c(=O)c(C(=O)O)cn(C5CC5)c4c3OC(F)F)ccc21 (single isomer, unassigned; (+)) [h, (+)-1-Cyclopropyl-8-difluoromethoxy-7-(1-methyliso-indolin-5-yl)-1,4-dihydro-4-oxoquinoline-3-carboxylic acid] | ≤ 0.05 µg/mL | ≤ 0.05 µg/mL |  | ≤ 0.05 µg/mL | 0.2 µg/mL (≈ 0.469 µM) |  |  |  |  |  | 
2 | CC1NCc2cc(-c3ccc4c(=O)c(C(=O)O)cn(C5CC5)c4c3OC(F)F)ccc21 (racemic) [g, (±)-1-Cyclopropyl-8-difluoromethoxy-7-(1-methyliso-indolin-5-yl)-1,4-dihydro-4-oxoquinoline-3-carboxylic acid] | ≤ 0.05 µg/mL | ≤ 0.05 µg/mL | 0.1 µg/mL (≈ 0.235 µM) | ≤ 0.05 µg/mL |  | ≥ 200 mg/kg |  |  |  |  | 
3 | Cc1c(-c2ccc3c(c2)CNC3)ccc2c(=O)c(C(=O)O)cn(C3CC3)c12 [a, 1-Cyclopropyl-7-(isoindolin-5-yl)-8-methyl-1,4-dihydro-4-oxoquinoline-3-carboxylic acid] | ≤ 0.05 µg/mL | ≤ 0.05 µg/mL | 0.1 µg/mL (≈ 0.277 µM) | ≤ 0.05 µg/mL |  |  |  |  |  |  | 
4 | O=C(O)c1cn(C2CC2)c2cc(N3CCNCC3)c(F)cc2c1=O [j, 1-Cyclopropyl-6-fluoro-7-(1-piperazinyl)-1,4-dihydro-4-oxoquinoline-3-carboxylic acid, reference compound] |  |  |  |  |  |  | ≤ 0.05 µg/mL | 0.2 µg/mL (≈ 0.604 µM) |  |  | 
5 | CC1NCc2cc(-c3ccc4c(=O)c(C(=O)O)cn(C5CC5)c4c3OC(F)F)ccc21 (single isomer, unassigned; (-)) [i, (-)-1-Cyclopropyl-8-difluoromethoxy-7-(1-methyliso-indolin-5-yl)-1,4-dihydro-4-oxoquinoline-3-carboxylic acid] |  |  |  |  | ≤ 0.05 µg/mL | ≥ 200 mg/kg |  |  | ≤ 0.05 µg/mL | ≤ 0.05 µg/mL | ≤ 0.05 µg/mL
6 | O=C(O)c1cn(C2CC2)c2c(OC(F)F)c(-c3ccc4c(c3)CNC4)ccc2c1=O [e, 1-Cyclopropyl-8-difluoromethoxy-7-(isoindolin-5-yl)-1,4-dihydro-4-oxoquinoline-3-carboxylic acid] | ≤ 0.05 µg/mL | ≤ 0.05 µg/mL | 0.1 µg/mL (≈ 0.242 µM) | ≤ 0.05 µg/mL |  | ≥ 200 mg/kg |  |  |  |  | 

Further lines, with some results ahead:

Row | MIC (S. aureus F-137; [1]) | MIC (E. coli NIHJ JC-2; [2]) | MIC (S. aureus F-597; [3]) | MIC (S. aureus FDA209P; [4]) | Compound | MIC (S. aureus F-597; 20 hours) | LD50 (in vivo) | MIC (E. coli NIHJ JC-2; Escherichia coli, NIHJJC2, 20 h) | MIC (S. aureus FDA209P; Staphylococcus aureus, FDA209P, 20 h) | MIC (S. aureus F-137; Mueller Hinton agar) | MIC (E. coli NIHJ JC-2; E. coli NIHJ JC-2, Mueller Hinton agar, 10^6 cells/plate, 37° C., 20 hours) | MIC (S. aureus FDA209P; S. aureus FDA209P, Mueller Hinton agar, 10^6 cells/plate, 37° C., 20 hours)
7 | ≤ 0.05 µg/mL | ≤ 0.05 µg/mL | ≤ 0.05 µg/mL | ≤ 0.05 µg/mL | Cc1c(-c2cc(F)c3c(c2)CNC3)ccc2c(=O)c(C(=O)O)cn(C3CC3)c12 [b, 1-Cyclopropyl-7-(7-fluoroisoindolin-5-yl)-8-methyl-1,4-dihydro-4-oxoquinoline-3-carboxylic acid] |  |  |  |  |  |  | 
8 | ≤ 0.05 µg/mL | ≤ 0.05 µg/mL | 0.1 µg/mL (≈ 0.266 µM) | ≤ 0.05 µg/mL | COc1c(-c2ccc3c(c2)CNC3)ccc2c(=O)c(C(=O)O)cn(C3CC3)c12 [c, 1-Cyclopropyl-7-(isoindolin-5-yl)-8-methoxy-1,4-dihydro-4-oxoquinoline-3-carboxylic acid] |  |  |  |  |  |  | 
9 | ≤ 0.05 µg/mL | ≤ 0.05 µg/mL | ≤ 0.05 µg/mL | ≤ 0.05 µg/mL | O=C(O)c1cn(C2CC2)c2c(OC(F)F)c(-c3cc(F)c4c(c3)CNC4)ccc2c1=O [f, 1-Cyclopropyl-8-difluoromethoxy-7-(7-fluoroiso-indolin-5-yl)-1,4-dihydro-4-oxoquinoline-3-carboxylic acid] |  |  |  |  |  |  | 
10 | ≤ 0.05 µg/mL | ≤ 0.05 µg/mL | ≤ 0.05 µg/mL | ≤ 0.05 µg/mL | COc1c(-c2cc(F)c3c(c2)CNC3)ccc2c(=O)c(C(=O)O)cn(C3CC3)c12 [d, 1-Cyclopropyl-7-(7-fluoroisoindolin-5-yl)-8-methoxy-1,4-dihydro-4-oxoquinoline-3-carboxylic acid] |  |  |  |  |  |  | 
